Data from ChEMBL document CHEMBL1156028, “Synthesis of 1,6,7,8-tetrahydro-naphtho[2,3-d]-azepino[4,5-b]indole-9,14-diones and their inhibitory effects on pro-inflammatory cytokines” (Bioorg Med Chem Lett, 2009).
Active and inactive are the calls of the source. The rule behind the calls is not given here.

Columns and labels:
[1] = Cytotoxicity against mouse RAW264.7 cells assessed as cell viability at 1 to 5 ug/ml after 4 hrs by MTT assay; format: cell-based; settings: read-out: Activity
RAW264.7 [2] = assay: Antiinflammatory activity in mouse RAW264.7 cells assessed as inhibition of LPS-induced nitric oxide production after 24 hrs by immunoassay; format: functional, cell-based
RAW264.7 [3] = assay: Antiinflammatory activity in mouse RAW264.7 cells assessed as inhibition of LPS-induced PGE2 production at 5 ug/ml after 24 hrs by immunoassay; format: functional, cell-based
RAW264.7 [4] = assay: Antiinflammatory activity in mouse RAW264.7 cells assessed as inhibition of LPS-induced TNFalpha production after 24 hrs by immunoassay; format: functional, cell-based
RAW264.7 [5] = assay: Antiinflammatory activity in mouse RAW264.7 cells assessed as inhibition of LPS-induced IL1-beta production at 1 to 5 ug/ml after 24 hrs by immunoassay; format: functional, cell-based
RAW264.7 [6] = assay: Antiinflammatory activity in mouse RAW264.7 cells assessed as inhibition of LPS-induced IL-6 production at 1 to 5 ug/ml after 24 hrs by immunoassay; format: functional, cell-based
RAW264.7 [7] = assay: Antiinflammatory activity in mouse RAW264.7 cells assessed as inhibition of LPS-induced PGE2 production at 1 ug/ml after 24 hrs by immunoassay; format: functional, cell-based

Row | SMILES | viability at 4 h [1] [%] | Activity (RAW264.7 [2]) | Activity (RAW264.7 [3]) | Activity (RAW264.7 [4]) | Activity (RAW264.7 [5]) | Activity (RAW264.7 [6]) | inhibition (RAW264.7 [7])
1 | C=CCN1CCc2c([nH]c3ccccc23)C2=C1C(=O)c1ccccc1C2=O | 24 | Dose-dependent effect | Active | Dose-dependent effect | inactive | inactive | 
2 | COc1cccc2c1C(=O)C1=C(NCCc3c1[nH]c1ccccc31)C2=O | 58 | Dose-dependent effect | Active | Dose-dependent effect | inactive | inactive | inactive
3 | O=C1C2=C(C(=O)c3ccccc31)c1[nH]c3ccccc3c1CCN2 | 58 | Dose-dependent effect | Active | Dose-dependent effect | inactive | inactive | inactive
4 | CN1CCc2c([nH]c3ccccc23)C2=C1C(=O)c1ccccc1C2=O | 58 | Dose-dependent effect | Active | Dose-dependent effect | inactive | inactive | 
5 | CCCN1CCc2c([nH]c3ccccc23)C2=C1C(=O)c1ccccc1C2=O | 58 | Dose-dependent effect | Active | Dose-dependent effect | inactive | inactive | 
6 | COc1ccc2[nH]c3c(c2c1)CCNC1=C3C(=O)c2ccccc2C1=O | 58 | Dose-dependent effect | Active | Dose-dependent effect | inactive | inactive | inactive
7 | O=C1C2=C(C(=O)c3ccccc31)N(Cc1ccccc1)CCc1c2[nH]c2ccccc12 | 58 | Dose-dependent effect | Active | Dose-dependent effect | inactive | inactive | inactive
